Here are results for three compounds from publication PMC7244523, “A Cell-based Screen in Actinomyces oris to Identify Sortase Inhibitors” (Scientific Reports, 2020).

In brackets after ≈: the same amount, converted by molar mass.

A word on the MIC: it is the smallest concentration in the dilution series that meets the test's criterion for growth inhibition. A lower MIC goes with greater potency. As usually defined, the IC50 is the point on the concentration scale where inhibition reaches its midpoint. Higher therefore signals weaker potency.

The subject of assay [1] is A. oris MG-1 (wild-type) versus ΔsrtA/ΔgspA strain. Briefly: High-throughput cell-based growth screen and counter-screen (differential growth). Further details: species or system Actinomyces oris. The note with it: differential effect on wild-type MG-1 and ΔgspAΔsrtA strains in the HTS; 10 µM, in duplicate; 100 = extreme difference, 0 = none. The procedure:
In the primary screen, a total of 200,834 small molecules were tested for their ability to impair A. oris MG-1 growth. Cells were added to an optical density (OD600) of 0.01 in media containing 10 µM of each molecule, followed by a 15 hour incubation at 37 °C and end-point OD600 measurement. The growth effect of each molecule was normalized and expressed as a percent growth relative to the DMSO-only control (see Methods). A total of 1,904 molecules were classified as preliminary hits (0.95% of the molecules tested), as they reduced MG-1 growth after 15 hours by at least 34%, or 2.75 standard deviations below the average. The preliminary hits were then subjected to a counter-screen in which their growth effects on ΔsrtA/ΔgspA were determined. In order to eliminate potentially erroneously identified preliminary hits, the counter-screen and preliminary screen was performed in duplicate for the 1,904 preliminary hit molecules. A molecule was deemed as a hit if it caused greater than 15% differential growth effect in duplicate when the MG-1 and ΔsrtA/ΔgspA strains were compared. […] Data is plotted as the percentage of growth inhibition for each molecule (see Methods).
A total of 200,834 small molecule compounds (Molecular Screening Shared Resource, UCLA) were dissolved in 100% Omnisolv methylsulfoxide (MilliporeSigma MX1456P-6) and stored in 384-well polypropylene plates. Actinomyces oris MG-1 and ΔgspAΔsrtA were streaked out on BHI agar plates containing 50 µg/mL kanamycin and grown at 37 °C for 48 hours to allow single colonies to grow. Cultures were started from 2–3 colonies in BHI with 50 µg/mL kanamycin and allowed to grow until an OD600 between 0.1–0.4. Meanwhile, 384-well plates were filled with 25 µL BHI broth with 100 µg mL^−1 kanamycin (columns 1–22) or 200 µg mL^−1 Penicillin G (positive control, columns 23–24). Five hundred nanoliters of small molecules were transferred into the media (columns 3–22) using the Biomex FX^P automated work station with a 384-well pin tool. Precultures were diluted to an OD600 of 0.02 in 1 L BHI broth without antibiotics. Twenty five microliters of cell culture was immediately aliquoted into plates containing 25 µL media, antibiotics, and small-molecules using a Multidrop (Thermo LabSystems), resulting in 50 µg mL^−1 kanamycin and 10 µM small molecules with 1% DMSO or 100 µg mL^−1 Penicillin G. Plates were immediately lidded and placed into a humidified Cytomat 6001 incubator at 37 °C and allowed to grow for 15.5 hours. Following incubation, plates were removed from the Cytomat using a Thermo Spinnaker robotic arm on a rail, de-lidded, and placed into an EnVision high-speed plate reader for optical density measurement at 620 nm.
Raw data obtained from the screen was formatted in-house to upload to the Collaborative Drug Discovery Vault (www.collaborativedrug.com). Individual optical density readings were converted to a percent growth value ([ODsample-ODPositive control]/[ODNegative Control Average- ODPositive control]) and percent growth inhibition (1-percent growth). The Z-factors for the individual molecules were determined. Molecules with a Z-factor less than or equal to -2.75 were considered preliminary hits to advance forward a generous collection of preliminary hit molecules. Five microliters of each of the 1904 preliminary hit molecules were re-arrayed into new 384-well polypropylene plates. Each of the 1904 preliminary hits were assayed against both the MG-1 and ΔgspAΔsrtA strains in duplicate, on two separate days. Percent difference of growth was calculated according to the equation 100–100[(ODMG-1, Sample-ODMG-1, Positive Control)/ODΔgspAΔsrtA, Sample-ODΔgspAΔsrtA, Positive Control)]/[(ODMG-1, Average-ODMG-1, Positive Control)/ODΔgspAΔsrtA, Average-ODΔgspAΔsrtA, Positive Control)]. […] Molecules were ranked according to their relative growth.

The subject of another assay is A. oris MG-1. Briefly: Minimum inhibitory concentration, MG-1 strain. Format: cell-based. The settings on record: Actinomyces oris, MG1; BHI, 96-well plates, 18 hours. The procedure:
(§1) Two validation assays were performed for each hit molecule that measured: (i) the minimum inhibitory concentration (MIC) required to prevent growth of the MG-1 and ΔsrtA/ΔgspA strains, and (ii) their in vitro inhibitory activity against the enzymatic activity of the A. oris and S. aureus sortase enzymes. Initially, the selective growth effect originally observed in the HTS that used 384-well plates was more rigorously defined by determining each molecule’s MIC value for the MG-1 and ΔsrtA/ΔgspA strains. Cells were cultured in 100 µL media containing 2-fold dilutions of each small molecule between 320 µM and 0.039 µM (approximately 134 µg mL^−1 to […]).
(§2) Minimum inhibitory concentration (MIC) values were determined for molecules 1–6 according to the Clinical Laboratory Standard Institutes’ (CLSI) Methods for Dilution Antimicrobial Susceptibility Tests for Bacteria that Grow Aerobically, Approved standards-ninth edition; M07-A9 Vol. 32 No. 2 with the following alterations. Overnight cultures of MG-1 and ΔgspAΔsrtA were diluted to OD600 values of 0.01 before being added to BHI containing the appropriate molecule in 96-well plates. Mueller-Hinton broth was not usable because A. oris is a fastidious bacterium. Plates were sealed with Breatheasy seals and incubated for 18 hours, as A. oris has a doubling time of 2 hours. Plate seals were removed and OD600 values measured. Each plate was run with a positive control (cells, media, and Penicillin G), negative control (media and cells only), and contamination control (media only).

The subject of another assay is A. oris ΔgspAΔsrtA. Nature of the assay: Minimum inhibitory concentration, ΔgspA/ΔsrtA strain. The class given is cell-based, Actinomyces oris. The settings on record: BHI, 96-well plates, 18 hours. Here is the method: as §1, §2
The next assay concerns the target AoSrtA (Actinomyces oris, UniProt A0A0X8K1J2). Briefly: FRET-based in vitro sortase activity assay, AoSrtA. The note with it: for Inhibition of AoSrtA in vitro: FRET assay; for IC50: IC50 (A. oris), AoSrtA 10 µM, Abz-LAQTG-Dap(Dnp)-NH2, 1 hour preincubation. Format: biochemical. Here is the method: (§3) The ability of the hit molecules to inhibit sortase activity was measured in vitro using an established FRET-based assay[13] that measures the ability of each enzyme to cleave a fluorogenic peptide substrate; Abz-LAQTG-Dap(Dnp)-NH2 and Abz-LPETG-Dap(Dnp)-NH2, substrates for ^AoSrtA and ^SaSrtA, respectively. Each enzyme cleaves between the threonine and glycine bond in these peptides, leading to a measurable increase in fluorescence (see Methods). The IC50 value of each compound was determined for both the ^AoSrtA and ^SaSrtA enzymes.
(§4) IC50 values for the six hit molecules against the ^AoSrtA and ^SaSrtA enzymes were determined as previously described, with some modifications. Briefly, molecules 1–6 were serial diluted 2-fold (from 1.25 mM to 2.44 µM, 500 µM to 0.98 µM final assay concentration) into 25 µM ^AoSrtA or ^SaSrtA (final assay concentration 10 µM) in buffer A (20 mM HEPES pH 7, 5 mM CaCl2, 0.05% TWEEN, 30% DMSO). The final DMSO concentration was […] in the assay. Samples were incubated 1 hour at room temperature and aliquoted into a 384-well plate (EK-30892). Thirty microliters of FRET peptide (Peptide 2.0) in buffer B (20 mM HEPES pH 7, 5 mM CaCl2, 0.05% TWEEN), […] for ^SaSrtA or Abz-LAQTG-Dap(Dnp)-NH2 for ^AoSrtA was added and the plate was immediately placed into a Flexstation II plate reader (Molecular Devices) and fluorescence was recorded at 335/420 nm excitation/emission wavelengths after 5 seconds of plate shaking to mix the reaction components. Plate fluorescence was measured over the course of 30 minutes.

For the next assay, the target named is SaSrtA (Staphylococcus aureus, UniProt Q2FV99). Briefly: FRET-based in vitro sortase activity assay, SaSrtA. The class given is biochemical. The procedure:
as §3, §4

Sequence of SaSrtA (Q2FV99 whole entry): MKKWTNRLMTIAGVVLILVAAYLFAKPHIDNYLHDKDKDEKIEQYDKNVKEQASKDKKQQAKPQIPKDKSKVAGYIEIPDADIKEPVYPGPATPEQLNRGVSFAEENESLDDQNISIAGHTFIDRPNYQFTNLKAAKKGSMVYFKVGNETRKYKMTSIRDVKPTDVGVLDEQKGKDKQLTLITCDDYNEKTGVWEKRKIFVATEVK
Sequence of AoSrtA (A0A0X8K1J2 entry or part of it): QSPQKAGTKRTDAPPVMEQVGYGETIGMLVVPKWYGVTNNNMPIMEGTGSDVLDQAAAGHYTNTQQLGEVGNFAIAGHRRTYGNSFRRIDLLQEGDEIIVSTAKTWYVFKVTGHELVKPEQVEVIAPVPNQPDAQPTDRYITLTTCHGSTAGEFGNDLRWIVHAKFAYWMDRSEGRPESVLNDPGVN

For the compound `Cc1cc(NS(=O)(=O)c2ccc(C(C)(C)C)cc2)n(C2CCS(=O)(=O)C2)n1` (stereo not drawn) [Compound 2], the “Differential Growth” value in assay [1] was 96.2 ± 0.3%. For the same compound, 0.5 µg/mL (≈ 1.21 µM) was the least that counted as inhibitory in the assay with A. oris MG-1 (MIC). Moreover, the “MIC (ΔgspA/ΔsrtA)” value against A. oris ΔgspAΔsrtA came to 2.1 µg/mL (≈ 5.1 µM). Further, at AoSrtA, the “Inhibition of AoSrtA in vitro” value is “failed to inhibit” and the 50% inhibitory concentration (IC50) is above 486 µM. Moreover, the IC50 against SaSrtA is above 486 µM.
`O=C(c1cc(-c2ccc(F)cc2)n[nH]1)N1CC(c2nc(-c3ccccc3)no2)C1` [Compound 5]: in assay [1], the “Differential Growth” value is listed as 96.2 ± 0.3%. This compound came in with an MIC in the assay on A. oris MG-1 of 1 µg/mL (≈ 2.57 µM). The “MIC (ΔgspA/ΔsrtA)” value in the assay on A. oris ΔgspAΔsrtA turned out to be 2.0 µg/mL (≈ 5.14 µM). Also, on AoSrtA, the “Inhibition of AoSrtA in vitro” value is on record as “failed to inhibit” and the IC50 was above 488 µM. Moreover, the IC50 against SaSrtA is 282 µM.
In the case of `Cc1ccc(S(=O)(=O)Cc2nc3cc(-c4ccccc4)sc3c(=O)[nH]2)cc1` [Compound 1], in assay [1], the “Differential Growth” value was 65.7 ± 0.5%. Moreover, the MIC against A. oris MG-1 was determined as 2 µg/mL (≈ 5.04 µM). In addition, in the assay on A. oris ΔgspAΔsrtA, the “MIC (ΔgspA/ΔsrtA)” value worked out at 4.0 µg/mL (≈ 10.1 µM). For the same compound, on AoSrtA, the “Inhibition of AoSrtA in vitro” value is listed as “failed to inhibit” and the IC50 is above 479 µM. Moreover, half-maximal inhibition at SaSrtA (IC50) was put at 202 µM.
